From patent EP1351977B1, “ANTIMICROBIAL PSEUDOPEPTIDES” (INSTITUT NATIONAL DE LA RECHERCHE AGRONOMIQUE (INRA), priority 2001, dated 2004)
Like-named read-outs stand apart in the source and are kept apart here. Ends that are not written are not given here.

Experiments:
Assay type in all cases: cell-based
[1] = tested on: Salmonella sp.; experiment: Bacterial growth inhibition test in Petri dish (solid medium), MIC; conditions: MIC extrapolated from inhibition diameter vs log10 concentration
Description: Deux tests ont été utilisés pour mesurer l'activité antibactérienne des pseudopeptides, un test d'inhibition de la croissance bactérienne en microplaques (de 96 puits) en milieu liquide et un test d'inhibition de la croissance bactérienne en boîte de Pétri en milieu solide. • * Test en microplaques: La culture bactérienne à tester est prélevée en phase exponentielle, puis diluée au 1/500^ème dans du milieu liquide TSB frais. Chaque puits de la microplaque est rempli avec 100 µl de suspension bactérienne diluée. Dans le premier puits, 100 µl de l'échantillon de pseudopeptide à tester est ajouté à la suspension bactérienne, puis l'échantillon est dilué de 2 en 2 en transférant d'un puits à l'autre 100 µl de suspension. La lecture de la microplaque se fait en mesurant la densité optique à […] (DO600nm) après 24h d'incubation à 28°C ou 37°C selon les bactéries cibles. Connaissant la concentration en pseudopeptide de l'échantillon de départ, ce test permet de déterminer la valeur de la CMI (Concentration Minimale d'Inhibition de la croissance bactérienne). Dans ce test, la CMI correspond à la concentration de l'échantillon pour lequel la DO600nm est inférieure à celle du témoin de culture. • * Test en boîte de Pétri: La culture bactérienne à tester est prélevée en phase exponentielle, puis incorporée à 10 ml d'une gélose dite "sous-couche" (Agarose 1% poids/vol; NaCl 100 mM; Trypcase 0.03 % poids/vol; Tampon phosphate 10 mM pH7.4) à raison de 2.10^5 bactéries/ml. Le mélange est coulé dans une boîte de Pétri ordinaire. 9 puits d'environ 10 µl de volume sont formés dans la "sous-couche" à l'aide d'un embout de pipette stérile de 10 ml. Ces puits sont remplis avec une série de dilutions des pseudopeptides à tester (concentration initiale 500 µg/ml, et dilution de deux en deux jusqu'à 1,95 µg/ml). Après diffusion à température ambiante pendant 2h, une gélose dite "sur-couche" (Agarose 1% wt/vol; Trypcase 6 % wt/vol; Tampon phosphate 10 mM pH7.4) est ajoutée sur la sous-couche à raison de 5 à 10 ml. Après solidification, l'ensemble est mis à incuber pendant une nuit. Le diamètre d'inhibition de la culture bactérienne autour de chaque puits est mesuré en mm; il existe une relation linéaire entre le diamètre d'inhibition et le log10 de la concentration en pseudopeptide qui permet de déterminer par extrapolation la valeur de la CMI.
Une première série de résultats a été obtenue en utilisant le test en boîte de Pétri vis-à-vis de bactéries non pathogènes issues de la collection de Travaux pratiques du laboratoire de Pathologie Comparée de l'Université de Montpellier (France). Dans cette série, les pseudopeptides des pics 5, 7, 8,10 et 11 ont été testés (Tableau 4).

[2] = tested on: Bacillus megaterium; experiment: as above; conditions: MIC extrapolated from inhibition diameter vs log10 concentration
[3] = tested on: Piricularia oryzae sp
[4] = tested on: Cladosporium myc; experiment: Antifungal growth inhibition test in liquid medium
[5] = tested on: Septoria tritici sp; experiment: Antifungal growth inhibition test in liquid medium
[6] = tested on: Pseudomonas fluorescens; experiment: Bacterial growth inhibition test in Petri dish (solid medium), MIC; conditions: MIC extrapolated from inhibition diameter vs log10 concentration
[7] = tested on: Klebsiella pneumoniae; experiment: as above; conditions: MIC extrapolated from inhibition diameter vs log10 concentration
[8] = tested on: Rhizoctonia solani myc; experiment: Antifungal growth inhibition test in liquid medium
[9] = tested on: Staphylococcus epidermidis; experiment: Bacterial growth inhibition test in Petri dish (solid medium), MIC; conditions: MIC extrapolated from inhibition diameter vs log10 concentration
[10] = tested on: Botrytis cinerea myc; experiment: Antifungal growth inhibition test in liquid medium
[11] = tested on: Helminthosporium teres sp; experiment: Antifungal growth inhibition test in liquid medium
[12] = tested on: Streptococcus Gr. D; experiment: Bacterial growth inhibition test in Petri dish (solid medium), MIC; conditions: MIC extrapolated from inhibition diameter vs log10 concentration
[13] = tested on: Cladosporium sp; experiment: Antifungal growth inhibition test in liquid medium
[14] = tested on: Botrytis cinerea sp; experiment: Antifungal growth inhibition test in liquid medium

Substance: Composé 8: pseudopeptide du pic n° 8 de Xenorhabdus nematophilus F1; Famille 1: Lys Lys Lys Lys Lys Gly; 1066 Da; structure en Figure 2 (KKKKKG; also: pseudopeptide modifications)
- CMI [1]: 30 µg/mL
- CMI [2]: 1,5 µg/ml
- pourcentage d'inhibition de croissance ([3]; 10 ppm): 30%
- pourcentage d'inhibition de croissance ([3]; 20 ppm): 35%
- pourcentage d'inhibition de croissance ([3]; 40 ppm): 45%
- pourcentage d'inhibition de croissance ([4]; 10 ppm): 70%
- pourcentage d'inhibition de croissance ([4]; 20 ppm): 92%
- pourcentage d'inhibition de croissance ([4]; 40 ppm): 91%
- pourcentage d'inhibition de croissance ([5]; 10 ppm): 87%
- pourcentage d'inhibition de croissance ([5]; 20 ppm): 88%
- pourcentage d'inhibition de croissance ([5]; 40 ppm): 86%
- CMI [6]: 3 µg/mL
- CMI [7]: 15 µg/mL
- pourcentage d'inhibition de croissance ([8]; 10 ppm): 56%
- pourcentage d'inhibition de croissance ([8]; 20 ppm): 91%
- pourcentage d'inhibition de croissance ([8]; 40 ppm): 93%
- CMI [9]: 30 µg/mL
- pourcentage d'inhibition de croissance ([10]; 10 ppm): 40%
- pourcentage d'inhibition de croissance ([10]; 20 ppm): 70%
- pourcentage d'inhibition de croissance ([10]; 40 ppm): 93%
- pourcentage d'inhibition de croissance ([11]; 10 ppm): 76%
- pourcentage d'inhibition de croissance ([11]; 20 ppm): 94%
- pourcentage d'inhibition de croissance ([11]; 40 ppm): 92%
- CMI [12]: 200 µg/mL
- pourcentage d'inhibition de croissance ([13]; 10 ppm): 94%
- pourcentage d'inhibition de croissance ([13]; 20 ppm): 94%
- pourcentage d'inhibition de croissance ([13]; 40 ppm): 94%
- pourcentage d'inhibition de croissance ([14]; 10 ppm): 52%
- pourcentage d'inhibition de croissance ([14]; 20 ppm): 95%
- pourcentage d'inhibition de croissance ([14]; 40 ppm): 94%
